# Experimental data published in patent publication US7402388B2, “Expression analysis of FKBP54 in assessing prostate cancer therapy” (Wyeth, priority 2000, dated 2008).
# Where two headings read alike, the source gives them in different places.
# B1: FKBP54: member of the immunophilin family, FK binding protein; transfected as expression vector encoding FKBP54 (protein, UniProt Q13451 1-457, looked up)
# Peptidyl-prolyl cis-trans …: MTTDEGAKNNEESPTATVAEQGEDITSKKDRGVLKIVKRVGNGEETPMIGDKVYVHYKGKLSNGKKFDSSHDRNEPFVFSLGKGQVIKAWDIGVATMKKGEICHLLCKPEYAYGSAGSLPKIPSNATLFFEIELLDFKGEDLFEDGGIIRRTKRKGEGYSNPNEGATVEIHLEGRCGGRMFDCRDVAFTVGEGEDHDIPIGIDKALEKMQREEQCILYLGPRYGFGEAGKPKFGIEPNAELIYEVTLKSFEKAKESWEMDTKEKLEQAAIVKEKGTVYFKGGKYMQAVIQYGKIVSWLEMEYGLSEKESKASESFLLAAFLNLAMCYLKLREYTKAVECCDKALGLDSANEKGLYRRGEAQLLMNEFESAKGDFEKVLEVNPQNKAARLQISMCQKKAKEHNERDRRIYANMFKKFAEQDAKEEANKAMGKKTSEGVTNEKGTDSQAMEEEKPEGHV
# How the values were obtained:
# prostate cancer cells = experiment: Sensitivity of prostate cancer cells to CCI-779; assay type: cell-based; conditions: some prostate cancer cells, data not shown
# FKBP54 [1] = conditions: LNCaP cells, 10 nM DHT, mRNA frequency
# Experimental: (§1) Human prostatic cancer cell lines LNCaP, DU-145, PC-3, and Tsu-prl were obtained from ATCC. LNCaP cancer cells were maintained in humidified atmosphere of 5% CO2 in air in RPMI 1640 medium supplemented with 10% fetal calf serum (Life Technologies, Inc, Rockville, Md.), 3 mM L-glutamine, 100 μg/ml streptomycin and 100 units/ml penicillin. Other lines were maintained in DMEM containing 3 mM L-glutamine, 100 μg/ml streptomycin, 100 units/ml penicillin, and 10% FCS in humidified atmosphere of 5% CO2. To examine the effects of steroids, cells were cultured in RPMI 1640 medium containing 5% FCS treated with dextran coated charcoal (Hyclone, Logan, Utah) for 24 hs before treatment. Cells were grown in the absence or presence of 10 nM DHT for 0, 2, 4, 6, 12, 24, 48, and 72 hs. They were collected and frozen at each time point. Two hundred μl of medium were collected from each flask for PSA assay.
# PSA [2] = conditions: LNCaP cells, 10 nM DHT, mRNA frequency
# PSA [3] = tested on: PSA
# FKBP54 [4] = experiment: Western blot analysis of FKBP54 protein in LNCaP cells; assay type: cell-based, human
# Experimental: For Western blot analysis, LNCaP cells were plated in 6-well plate at 1×10^6 cells/well in charcoal stripped serum containing medium. Cells were treated with 10 nM DHT and harvested at designated time. Cells were harvested in MPER reagent (Pierce, Rockford, Ill.) containing 400 mM NaCl. […] The PVDF membrane was incubated in TBST (TBS with 0.1% Tween-20) with 3% milk for 15 minutes before the addition of the first antibody, rabbit anti-FKBP54 (Affinity Bioreagents, Inc). After overnight incubation, the PVDF membrane was washed 3 times with TBST and incubated with a second antibody, anti-rabbit-IgG coupled with horseradish peroxidase (Transduction Labs) for one hour. The PVDF membrane was then washed 3 times with TBST and protein was detected by using an enhanced chemiluminescence detection system (Pierce).
# LNCaP cells = conditions: MTT assay, FIG. 1A
# Experimental: as §1
# To verify the effect of DHT on the growth of LNCaP cells, cells at 3,000 cells/well were plated in 96-well plates for 24 hs before treatment with DHT. After 72 hs, MTT was added to each well and incubated at 37° C. for four hs. At the end of incubation, the supernatant was removed and 100 μl DMSO was added to each well to dissolve […]. Plates were subsequently read in a plate reader at […].
# androgen receptor (AR) = experiment: Transient transfection of COS-1 cells, GREe1bLuc luciferase reporter of AR transcriptional activity; assay type: cell-based; conditions: COS-1 cells transfected with FKBP54 expression vector
# Experimental: Bars represent the mean of at least three independent experiments±SD. To determine the effect of FKBP54 on the transcriptional activity of androgen receptor (AR), COS-1 cells were transiently transfected with a reporter construct containing androgen receptor response element along with an expression vector encoding FKBP54. […] The next morning, medium were replaced with 2-ml DMEM. Indicated amount of DNA in 100 μl of DMEM was mixed with 6 μl of PLUS reagent (Gibco) and incubated at room temperature while 4 μl of lipofectamine was mixed with 100 μl of DMEM. […] After incubation with DNA for 4 hours, 2 ml of phenol red-free DMEM containing 10% charcoal-stripped fetal bovine serum was added and cells treated with indicated chemicals for additional 24 hours before being harvested. Luciferase activity was determined using Promega's STEADY GLO™ Luciferase Assay System.
Molecule,"FKBP54 protein expression (Western blot, blot not shown) (FKBP54 [4])",increase in level of FKBP54 expression (FKBP54 [4]; 24 hours post exposure),increase in level of FKBP54 expression (FKBP54 [4]; 72 hours post exposure),Quantitative Expression Levels of FKBP54 (band density values) (FKBP54 [4]; time 0 hr),Quantitative Expression Levels of FKBP54 (band density values) (FKBP54 [4]; time 2 hr),Quantitative Expression Levels of FKBP54 (band density values) (FKBP54 [4]; time 6 hr),Quantitative Expression Levels of FKBP54 (band density values) (FKBP54 [4]; time 12 hr),Quantitative Expression Levels of FKBP54 (band density values) (FKBP54 [4]; time 24 hr),Quantitative Expression Levels of FKBP54 (band density values) (FKBP54 [4]; time 48 hr),Quantitative Expression Levels of FKBP54 (band density values) (FKBP54 [4]; time 72 hr),further results
CO[C@H]1C[C@@H]2CC[C@@H](C)[C@@](O)(O2)C(=O)C(=O)N2CCCC[C@H]2C(=O)O[C@H]([C@H](C)C[C@@H]2CC[C@@H](OC(=O)C(C)(CO)CO)[C@H](OC)C2)CC(=O)[C@H](C)/C=C(\C)[C@@H](O)[C@@H](OC)C(=O)[C@H](C)C[C@H](C)/C=C/C=C/C=C/1C [CCI-779],–,–,–,–,–,–,–,–,–,–,sensitivity of prostate cancer cells (prostate cancer cells): sensitive
"C[C@]12CCC(=O)C[C@@H]1CC[C@@H]1[C@@H]2CC[C@]2(C)[C@@H](O)CC[C@@H]12 [DHT, dihydrotestosterone]",upregulated the FKB54 expression in a time-dependent manner,approximately two-fold,approximately 4 fold,8.5,9.0,9.8,8.0,12.0,23.0,30.2,FKBP54 expression induction relative to baseline (FKBP54 [1]; 6 hours): 2 fold; FKBP54 expression induction relative to baseline (peak) (FKBP54 [1]; 24 hours): approximately 4 fold; PSA expression increase relative to control (PSA [2]; 12 hours): 3 fold; PSA expression increase relative to control (PSA [2]; 72 hours): approximately 4 fold; PSA production (PSA [3]): increased in a dose-dependent manner; time at which PSA signal was first detected (PSA [3]): 12 h; time of maximal PSA level (PSA [3]): about 48 hs; growth of LNCaP cells (LNCaP cells): stimulated by a natural androgen DHT in a dose-dependent manner
C[C@]1(O)CC[C@H]2[C@@H]3CCC4=CC(=O)CCC4=C3C=C[C@@]21C [R1881],could also upregulate the FKBP54 expression,~10 fold,approximately 30 fold,1.8,5.3,5.9,5.0,20.1,27.2,34.4,–
B1,–,–,–,–,–,–,–,–,–,–,increase of AR activity (androgen receptor (AR); in the presence of androgen (10^-9 M R1881)): more than 30%; effect on the reporter activity (androgen receptor (AR); without androgen): no effect
